The source of these data is patent publication US20050208058A1, “Compositions and methods for modulating cell division” (priority 2003, published 2005).

Type in all cases: cell-based, human
The subject of data set [1] is RPE cells. Briefly: BrDU incorporation after siRNA treatment and nocodazole synchronization. The conditions noted are these: relative to control cells (siRNA to lamin), after nocodazole release; FIG. 2A. The procedure:
To further study the effects of silencing centrosomal genes, the following cell cycle experiments were performed using RPE cells. In immunofluorescence experiments, cells were delivered by OLIGOFECTAMINE in a media solution containing between 1-100 nanomolar concentration of siRNAs. After 4 hours of incubation with lipofectamine, cells were washed, and cell cycle progression was assayed by (i) treating cells with 5-Bromo-2′-deoxyuridine (BrDU from Sigma, St Louis, Mo.) for 24 hours and staining for BrDU or (ii) staining cells with antibody to Ki-67 (BD Biosciences) according to manufacturer's instructions. BrDU treatment and staining were performed as follows: after 50-70 hours incubation with siRNA, BrDU was added to cells at a final concentration of 5 μg/ml. Cells were fixed in −20° C. methanol and then treated with 2N HCL at 22° C. for 30 minutes, incubated with 1:500 mouse anti-BrdU antibody (Becton Dickinson, Palo Alto, Calif.), and labeled with 1:1,000 goat FITC-mouse antibody (Molecular Probes, Inc.). Cells were also treated with 4′,6-diamidino-2-phenylindole (DAPI) (Molecular Probes) according to the manufacturer's instructions. Cells were prepared, imaged, and the resulting images were deconvolved as described in Example 1.
Upon release from nocodazole treatment, proliferating cells typically resume cell cycle progression. Chromosomal DNA in the cells was imaged using DAPI (faint ghost-like staining) and/or BrDU (brighter staining). Although DAPI can be used to visualize DNA at any stage of the cell cycle, BrDU is only incorporated into newly synthesized DNA only during S-phase. Thus, BrDU incorporation can be used as a marker of cells that progress through at least one S-phase of the cell cycle. Control cells in this experiment were treated with siRNA to lamin.

For data set [2], the system named is RPE cells. Nature of the data set: Flow cytometry (FACS) of nocodazole-induced shift from G1 to G2/M peak after siRNA treatment. Conditions: siRNA 50-70 hours, nocodazole 5 μg/mL 12 hours; FIG. 3A, FIG. 8. The procedure: (§1) For flow cytometry (i.e., fluorescence-activated cell sorter or FACS) experiments, siRNAs were delivered to cells as described above, and were incubated for 50-70 hours. To synchronize cells, nocodazole was added to the cells to a concentration of 5 μg/mL for 12 hours. Cells were stained with propidium iodide and analyzed by flow cytometry (FACSCAN; Becton Dickinson) using FLOJO® software (Tree Star, Inc., Ashland, Oreg.).
In another approach to evaluating the effect requirement for centrosomal gene products, fluorescence assisted cell sorting (flow cytometry or FACS) analysis was performed as described in Gromley et al., J. Cell Biol., 161:535-545 (2003). Briefly, cells were treated with indicated siRNA for at least 50-70 hours, unless otherwise indicated. Cells were synchronized by adding nocodazole to 5 μg/mL for 12 hours prior to cell collection. Cells were collected, fixed in methanol, stained with propidium iodide, and analyzed by flow cytometry (FACSCAN®;Becton Dickinson) using FLOJO® software (Tree Star, Inc.).
FIG. 3A is a graph showing the effects of depleting the indicated centrosomal gene products by siRNA treatment. The left side of the graph depicts the FACS results for treated cells before the addition of nocodazole (-noc). The major fluorescence peak in (-noc) cells is the G1 peak, (i.e., lower DNA fluorescence). The right side of the graph depicts the results for cells after nocodazole treatment (+noc). […] This may be due to inefficient silencing caused by the siRNAs used.
The ability of a number of centrosomal genes to inhibit cell cycling of RPE1 cells was tested by treating cells with siRNAs and performing FACS analysis as described in Example 2.

Data set [3] deals with RPE cells. Nature of the data set: CFDA-SE labeling cell division assay. Conditions: during the 72 hours following siRNA treatment; FIG. 4. From the text:
RPE cells were transfected with siRNA directed to pericentrin A/B or lamin (control) as described in Example 2. Immediately prior to siRNA transfection cells were labeled with a succinimidyl ester of carboxyfluorescein diacetate (CFDA-SE from Molecular Probes, Eugene, Oreg.) according to manufacturers instructions. CFDA-SE is a fluorescent marker that spontaneously and irreversibly couples to free amines on intracellular and cell-surface proteins. When a cells divides, CFDA-SE labeling is inherited equally by daughter cells, which are therefore half as fluorescent as the parent cell. Cells were prepared for and analyzed by fluorescence microscopy as described in Example 1.

Another data set relates to δ-tubulin. Nature of the data set: Immunofluorescence of centrosomal δ-tubulin after siRNA treatment. Conditions: vs lamin control; FIG. 1D. The procedure: (§2) To test the ability of siRNAs to silence centrosomal gene products, cells were treated with siRNAs for 24 hours. Cells were diploid, telomerase-immortalized human retinal pigment epithelial (RPE1) cells (hTERT-RPE1s from Clontech, Palo Alto, Calif.) (see Morales et al., Nat Genet, 21:115-118, 1999). siRNAs directed to δ-tubulin (SEQ ID NO:2), γ-tubulin (SEQ ID NO:4), GCP2 (SEQ ID NO:5), GCP3(SEQ ID NO:6), cNAP1 (SEQ ID NO:8), PCM1 (SEQ ID NO:9), ninein (SEQ ID NO:21), NEK2a (SEQ ID NO:10), centrin2 (SEQ ID NO:12), CDC14A (SEQ ID NO:13), gapcena (SEQ ID NO:15), nemo (SEQ ID NO:16), pericentrin (SEQ ID NO:23), lamin A/C (CUGGACUUCCAGAAGAACA, SEQ ID NO: 24) zyxin (UGUGGCUGUCAACGAACUC, SEQ ID NO:25), and p53 (GGACAAGGGUUGGGCUGGG, SEQ ID NO:26) were made as complementary single stranded 19-mer siRNAs with 3′ dTdT overhangs (Dharmacon Inc., Lafayette, Colo.), deprotected, annealed and delivered into cells using OLIGOFECTAMINE® from Invitrogen (Carlsbad, Calif.). Nucleotides were delivered in media containing up to 100 nanomolar concentrations of siRNAs.
Commercial antibodies to the following proteins were used in this study: lamin A/C (Cell Signaling Technology, Beverly, Mass.), δ-, ε-, or γ-tubulin (Sigma-Aldrich, St. Louis, Mo.), zyxin (Santa Cruz Biotechnology, Santa Cruz, Calif.), Nek2A (Zymed, South San Francisco, Calif.), p53 (Calbiochem, San Diego, Calif.). […]

The test system of another data set is cdc14A. Briefly: Anti-cdc14A immunofluorescence intensity in siRNA-treated cells. Conditions: 25 cells; FIG. 1C. Here is the method:
as §2, with “siRNAs. […]” for “siRNAs.”
FIG. 1C is a histogram quantifying anti-cdc14A immunofluorescence observed in 25 cells treated with (i) siRNA to CDC14 (siCDC14) or (ii) control siLamin.

The next data set deals with RPE1 cells. Nature of the data set: FACS of nocodazole shift with kinase inhibitors and siGCP3 (p38 dependence). The conditions noted are these: FIG. 7. The procedure: as §1
The following experiment was performed to test if p38, an upstream component of p53 signaling, is required for the centrosomal cell cycle arrest phenotype described herein. The following inhibitors were added to RPE1 cells 1 hour prior to siRNA treatment at the indicated concentrations: SB203580 (p38 inhibitor) 40 μM, SB202190 (p38 inhibitor) 10 μM, and PD98059 (MAPK inhibitor) 50 μM. All inhibitors were obtained from Calbiochem and dissolved in DMSO. siRNA treatment and FACS analysis was performed as described in Example 2.

d = 2'-deoxy (DNA)

As for “AGGGAACCAAGGAAAGGCA (siRNA; RNA, 3' dTdT, backbone not given here) [NEK, siRNA directed to NEK2]”, the “incorporation of BrDU into chromosomal material” value (shortened to “incorporation”) with RPE cells [1] is reported as “less pronounced”. Further, the “inhibition of nocodazole-induced shift from G1 peak to G2/M peak” value (shortened to “inhibition of nocodazole-induced shift”) with RPE cells [2] is recorded as “did not cause a pronounced inhibition of the shift”.
Take “UAUGAGCAUUGAGGCAGAG (siRNA; RNA, 3' dTdT, backbone not given here) [ninein]”: the “inhibition of nocodazole-induced shift” value in the data set with RPE cells [2] is “did not cause a pronounced inhibition of the shift”.
Still for that read-out and setting: the same measure for “ACUUCGCCUGGUCCAACUU (siRNA; RNA, 3' dTdT, backbone not given here) [GCP-5, siRNA directed to GCP5]”: “prevented nocodazole-induced shift”.
The same measure, in the same setting: the same measure for “GUCCCCCAAACAGAGAAAC (siRNA; RNA, 3' dTdT, backbone not given here) [PCM-1, siRNA directed to PCM1]”: “prevented nocodazole-induced shift”.
As to “GCAGCUGAGCUGAAGGAGA (siRNA; RNA, 3' dTdT, backbone not given here) [pericentrin A/B, siRNA directed to both pericentrin A and pericentrin B]”, in the data set on RPE cells [3], the “cells that never divided” value was 40%.
As to “GGUUCUGGAAACAACUGGG (siRNA; RNA, 3' dTdT, backbone not given here) [siδ-tubulin, siRNA directed to δ-tubulin]”, in the data set with δ-tubulin, the “centrosomal δ-tubulin staining” value is on record as “reduced the number and/or fluorescence intensity of centrosomal staining”.
On to “GCACAGUAAAUACCCACUA (siRNA; RNA, 3' dTdT, backbone not given here) [siCDC14, siRNA directed to CDC14A]”, for which, in the data set with cdc14A, the “cells displaying lower anti-cdc14A fluorescence intensity than the lowest control (siLamin treated) cell” value was 68%.
For “AAGAGAAGCAGAUGCUGCA (siRNA; RNA, 3' dTdT, backbone not given here) [siGCP3, siRNA directed to GCP3]”, in the data set with RPE cells [2], the “inhibition of nocodazole-induced shift” value was “prevented nocodazole-induced shift”. In addition, the “effect of siRNA on nocodazole-induced shift from G1 to G2/M peak” value in the data set on RPE1 cells (siRNA alone) is recorded as “inhibited this shift”.
As for “CUGGACUUCCAGAAGAACA (siRNA; RNA, 3' dTdT, backbone not given here) [lamin, control siRNA directed to lamin A/C, reference compound]”, the “cells that never divided” value in the data set on RPE cells [3] is recorded as approximately 7%.
On to “GAGCAAAAGCAGGAGAUCC (siRNA; RNA, 3' dTdT, backbone not given here) [centrin, siRNA directed to centrin2]”, for which the “incorporation” value with RPE cells [1] is given as “clearly inhibited incorporation of BrDU”.
For “UCUAUCCGAAAGCCCAGUC (siRNA; RNA, 3' dTdT, backbone not given here) [CNAP, siRNA directed to cNAP1]”, the “incorporation” value with RPE cells [1] was “clearly inhibited incorporation of BrDU”. Moreover, the “inhibition of nocodazole-induced shift” value in the data set on RPE cells [2] is “prevented nocodazole-induced shift”.
Consider `COc1cccc(-c2cc(=O)c3ccccc3o2)c1N` [map kinase inhibitor, PD98059], for which, in the data set with RPE1 cells (SB203580 40 μM, SB202190 10 μM, PD98059 50 μM), the “effect of inhibitor alone on nocodazole-induced shift from G1 to G2/M peak” value is reported as “did not inhibit the nocodazole-induced shift”. Besides, in the data set with RPE1 cells (inhibitor added 1 hour prior to siGCP3, SB203580 40 μM, SB202190 10 μM, PD98059 50 μM), the “effect of inhibitor on siGCP3-induced cell cycle arrest” value is “did not affect siGCP3's ability to cause cell cycle arrest”.
